These results are taken from patent US8901305B2, “Aryl lactam kinase inhibitors” (Bristol-Myers Squibb Company, priority 2012, dated 2014).

The structures appear in SMILES notation.

One may read the IC50 as the concentration needed to halve the response being measured.

In this assay the target is T1, GST-Xa-hAAK1 (Homo sapiens, UniProt Q2M2I8).
T1 construct: made in house
The assay is described as follows: AAK1 kinase assay. In kind it is biochemical. To be noted: ATP 22 μM, 3 hours at room temperature. On the procedure:
The assays were performed in U-bottom 384-well plates. […] The reactions were initiated by the combination of bacterially expressed, GST-Xa-hAAK1 with substrates and test compounds. The reactions were incubated at room temperature for 3 hours and terminated by adding 60 μl of 35 mM EDTA buffer to each sample. The reactions were analyzed on the Caliper LabChip 3000 (Caliper, Hopkinton, Mass.) by electrophoretic separation of the fluorescent substrate and phosphorylated product. […] Compounds were dissolved at 10 mM in dimethylsulfoxide (DMSO) and evaluated at eleven concentrations. IC50 values were derived by non-linear regression analysis.

T1 sequence (Q2M2I8 whole entry): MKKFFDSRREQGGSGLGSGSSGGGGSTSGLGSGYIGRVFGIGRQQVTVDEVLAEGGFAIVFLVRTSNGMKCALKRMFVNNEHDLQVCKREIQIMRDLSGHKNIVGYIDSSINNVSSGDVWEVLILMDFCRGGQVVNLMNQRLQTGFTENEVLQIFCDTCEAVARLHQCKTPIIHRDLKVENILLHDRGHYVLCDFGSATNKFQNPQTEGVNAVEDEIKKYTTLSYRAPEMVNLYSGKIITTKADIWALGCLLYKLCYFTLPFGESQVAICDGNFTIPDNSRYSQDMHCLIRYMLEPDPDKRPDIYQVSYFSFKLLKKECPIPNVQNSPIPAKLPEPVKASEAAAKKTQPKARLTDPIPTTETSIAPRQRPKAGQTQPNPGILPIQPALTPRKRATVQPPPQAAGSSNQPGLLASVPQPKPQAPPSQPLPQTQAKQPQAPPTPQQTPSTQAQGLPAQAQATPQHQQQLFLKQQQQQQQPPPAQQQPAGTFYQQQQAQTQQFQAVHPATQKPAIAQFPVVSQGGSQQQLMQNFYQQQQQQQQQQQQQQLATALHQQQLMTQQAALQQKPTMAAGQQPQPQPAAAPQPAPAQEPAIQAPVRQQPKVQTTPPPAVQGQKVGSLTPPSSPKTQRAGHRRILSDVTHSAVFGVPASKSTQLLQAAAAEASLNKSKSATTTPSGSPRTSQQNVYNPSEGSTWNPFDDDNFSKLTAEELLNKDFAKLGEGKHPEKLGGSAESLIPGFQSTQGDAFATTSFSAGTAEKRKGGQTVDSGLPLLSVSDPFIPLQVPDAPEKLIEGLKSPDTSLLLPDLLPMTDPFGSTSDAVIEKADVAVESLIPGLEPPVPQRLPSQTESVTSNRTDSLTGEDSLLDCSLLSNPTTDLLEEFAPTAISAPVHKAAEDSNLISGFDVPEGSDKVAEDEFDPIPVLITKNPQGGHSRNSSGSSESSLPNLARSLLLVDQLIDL

As to `Cc1nccc2c1c(=O)n(C)c1cc(OC[C@@H](N)CC(C)C)c(C(C)O)cc21` (single isomer, unassigned) [Example 30], the IC50 turned out to be 1.7 nM.
Turning to `Cc1nccc2c1c(=O)n(C)c1cc(OC[C@@H](N)CC(C)C)c(C(C)O)cc21` (single isomer, unassigned) [Example 31], the IC50 (given as IC50 range) is 10 to 100 nM.
On to `Cc1nccc2c1c(=O)n(C)c1cc(OC[C@@](C)(N)CC(C)C)ccc21` (single isomer, unassigned) [Example 38], for which the 50% inhibitory concentration (IC50) stood at 13 nM.
With `Cc1nccc2c1c(=O)n(C)c1cc(OC[C@@H](N)CC(C)C(F)(F)F)ccc21` (single isomer, unassigned) [Example 87], the IC50 (given as IC50 range) is 1 to 10 nM.
Still for that read-out and setting: the same measure for `Cc1nccc2c1c(=O)n(C)c1cc(OCC(N)CC(F)(F)F)ccc21` (single isomer, unassigned) [Example 91]: 10 to 100 nM; for `Cc1nccc2c1c(=O)n(C)c1cc(OCC(N)CC(F)(F)F)ccc21` (single isomer, unassigned) [Example 92]: 1 to 10 nM.
In the case of `CC(C)C[C@H](N)COc1cc2c(cc1O)c1ccncc1c(=O)n2C` [Example 7, (S)-8-(2-amino-4-methylpentyloxy)-9-hydroxy-6-methylbenzo[c][2,7]naphthyridin-5(6H)-one], the IC50 came out at 11 nM.
For `CC(C)C[C@H](N)COc1ccc2c3ccncc3c(=O)n(C(C)C)c2c1` [Example 8, (S)-8-((2-amino-4-methylpentyl)oxy)-6-isopropylbenzo[c][2,7]naphthyridin-5(6H)-one], the IC50 (given as IC50 range) was 10 to 100 nM.
Turning to `CC(C)C[C@H](N)COc1ccc2c3ccncc3c(=O)n(Cc3ccccc3)c2c1` [Example 11, (S)-8-((2-amino-4-methylpentyl)oxy)-6-benzylbenzo[c][2,7]naphthyridin-5(6H)-one], the 50% inhibitory concentration (IC50) was 73 nM.
The same measure, in the same setting: the same measure for `COCCn1c(=O)c2cnccc2c2ccc(OC[C@@H](N)CC(C)C)cc21` [Example 12, (S)-8-((2-amino-4-methylpentyl)oxy)-6-(2-methoxyethyl)benzo[c][2,7]naphthyridin-5(6H)-one]: 85 nM.
For the compound `CC(C)C[C@H](N)COc1ccc2c3ccncc3c(=O)n(CC3CC3)c2c1` [Example 13, (S)-8-((2-amino-4-methylpentyl)oxy)-6-(cyclopropylmethyl)benzo[c][2,7]naphthyridin-5(6H)-one], the IC50 (given as IC50 range) lay within 10 to 100 nM.
On the same count and under the same terms, with `CC(=O)Nc1cc2c(cn1)c(=O)n(C)c1cc(OC[C@@H](N)CC(C)C)ccc21` [Example 18, (S)—N-(8-(2-amino-4-methylpentyloxy)-6-methyl-5-oxo-5,6-dihydrobenzo[c][2,7]naphthyridin-2-yl)acetamide] the figure was 100 to 2000 nM.
For the compound `Cc1nccc2c1c(=O)n(C)c1cc(OC[C@@H](N)CC3CC3)ccc21` [Example 21, (S)-8-(2-amino-3-cyclopropylpropoxy)-4,6-dimethylbenzo[c][2,7]naphthyridin-5(6H)-one], the IC50 came out at 23 nM.
Same read-out and setting: with `Cc1nccc2c1c(=O)n(C)c1cc(OC[C@@H](N)CC3CCC3)ccc21` [Example 22, (S)-8-(2-amino-3-cyclobutylpropoxy)-4,6-dimethylbenzo[c][2,7]naphthyridin-5(6H)-one] the figure was 12 nM.
Same read-out and setting: the same measure for `CC(C)CC(C)(N)COc1ccc2c3ccncc3c(=O)n(C)c2c1` (stereo not drawn) [Example 28, 8-((2-amino-2,4-dimethylpentyl)oxy)-6-methylbenzo[c][2,7]naphthyridin-5(6H)-one]: 1.1 nM.
As for `Cc1nccc2c1c(=O)n(C)c1c(F)c(OCC(C)(N)CC(C)C)ccc21` (stereo not drawn) [Example 29, 8-((2-amino-2,4-dimethylpentyl)oxy)-7-fluoro-4,6-dimethylbenzo[c][2,7]naphthyridin-5(6H)-one], where the note is “given as IC50 range”, the IC50 was 100 to 2000 nM.
With `COc1cc2c3ccnc(C)c3c(=O)n(C)c2cc1OCC(C)(N)CC(C)C` (stereo not drawn) [Example 34, 8-((2-amino-2,4-dimethylpentyl)oxy)-9-methoxy-4,6-dimethylbenzo[c][2,7]naphthyridin-5(6H)-one], the concentration for half-maximal inhibition (IC50) was found to be 5.9 nM.
On the same count and under the same terms, with `Cc1nccc2c1c(=O)n(C)c1cc(OC[C@@H](N)CC(C)C)c(C(C)(C)O)cc21` [Example 35, (S)-8-((2-amino-4-methylpentyl)oxy)-9-(2-hydroxypropan-2-yl)-4,6-dimethylbenzo[c][2,7]naphthyridin-5(6H)-one] the figure was 114 nM.
On the same count and under the same terms, with `CCc1cc2c3ccnc(C)c3c(=O)n(C)c2cc1OC[C@@H](N)CC(C)C` [Example 36, (S)-8-((2-amino-4-methylpentyl)oxy)-9-ethyl-4,6-dimethylbenzo[c][2,7]naphthyridin-5(6H)-one] the figure was 0.35 nM; with `Cc1nccc2c1c(=O)n(C)c1cc(OC[C@H](CC(C)C)N(C)C)ccc21` [Example 40, (S)-8-((2-(dimethylamino)-4-methylpentyl)oxy)-4,6-dimethylbenzo[c][2,7]naphthyridin-5(6H)-one], 123 nM.
As to `CC(C)C[C@H](N)COc1ccc2c3ccncc3c(=O)n(CCO)c2c1` [Example 44, (S)-8-(2-amino-4-methylpentyloxy)-6-(2-hydroxyethyl)benzo[c][2,7]naphthyridin-5(6H)-one], the half-inhibitory concentration (IC50) came to 41 nM.
The same measure, in the same setting: the same measure for `CC(C)C[C@H](N)COc1ccc2c3ccncc3c(=O)n(CC(F)(F)F)c2c1` [Example 45, (S)-8-(2-amino-4-methylpentyloxy)-6-(2,2,2-trifluoroethyl)benzo[c][2,7]naphthyridin-5(6H)-one]: 29 nM.
On the same count and under the same terms, the same measure for `COc1ccc(CNc2nccc3c2c(=O)n(C)c2cc(OC[C@@H](N)CC(C)C)ccc32)cc1` [Example 50, (S)-8-((2-amino-4-methylpentyl)oxy)-4-((4-methoxybenzyl)amino)-6-methylbenzo[c][2,7]naphthyridin-5(6H)-one]: 33 nM.
The same measure, in the same setting: with `CC(C)OC[C@H](N)COc1ccc2c3ccncc3c(=O)n(C)c2c1` [Example 53, (S)-8-(2-amino-3-isopropoxypropoxy)-6-methylbenzo[c][2,7]naphthyridin-5(6H)-one] the figure was 119 nM.
Take `CN[C@H](COc1ccc2c3ccncc3c(=O)n(C)c2c1)CC(C)C` [Example 54, (S)-6-methyl-8-((4-methyl-2-(methylamino)pentyl)oxy)benzo[c][2,7]naphthyridin-5(6H)-one]: the IC50 (given as IC50 range) is 10 to 100 nM.
On to `Cn1c(=O)c2cnccc2c2ccc(OC[C@@H](N)CC(C)(F)F)cc21` [Example 55, (S)-8-((2-amino-4,4-difluoropentyl)oxy)-6-methylbenzo[c][2,7]naphthyridin-5(6H)-one], for which the IC50 (given as IC50 range) was in the range of 10 to 100 nM.
Regarding `Cn1c(=O)c2cnccc2c2ccc(OCC3CCCCN3)cc21` (stereo not drawn) [Example 57, 6-methyl-8-(piperidin-2-ylmethoxy)benzo[c][2,7]naphthyridin-5(6H)-one], the IC50 is 229 nM.
On to `CC(C)C[C@H](N)COc1ccc2c3ccnc(C(F)F)c3c(=O)n(C)c2c1` [Example 60, (S)-8-(2-amino-4-methylpentyloxy)-4-(difluoromethyl)-6-methylbenzo[c][2,7]naphthyridin-5(6H)-one], for which, under “given as IC50 range”, the IC50 was 100 to 2000 nM.
Turning to `Cc1nccc2c1c(=O)n(C)c1c(Cl)c(OC[C@@H](N)CC(C)C)ccc21` [Example 61, (S)-8-((2-amino-4-methylpentyl)oxy)-7-chloro-4,6-dimethylbenzo[c][2,7]naphthyridin-5(6H)-one], the IC50 was found to be 126 nM.
Turning to `Cc1cc2c(cn1)c(=O)n(C)c1cc(OC[C@@H](N)CC(C)C)c(Br)cc21` [Example 66], for the setting “given as IC50 range”, the IC50 was 100 to 2000 nM.
